One test deals with Pim1 kinase (Homo sapiens, UniProt P11309). In words: Pim1 ATP depletion assay.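 Further: Luciferase-luciferin luminescence readout of residual ATP after PIM1 transfers phosphate to a peptide substrate, 40 µM ATP added, reaction run to roughly half ATP consumption.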 Type of test: biochemical. To be noted: Pim1 ATP depletion assay.
Another test deals with Pim3 kinase (Homo sapiens, UniProt Q86V86). Briefly: Pim3 ATP depletion assay. In kind it is biochemical.
Another test deals with PC3 cells. Briefly: Cell proliferation assay (CellTiter-Glo), PC3. Type of test: cell-based. To be noted: Homo sapiens, PC-3. The protocol:
HEL 92.1.7 cells (ATTC No. TIB-180, an erythroleukemia line derived from malignant peripheral blood), MV4-11 cells (ATCC No. CRL-9591, a human acute monocytic leukemia line) and PC3 cells (ATCC No. CRL-1435, a human prostatic adenocarcinoma line) were cultured in RPMI1640 supplemented with 10% FBS, sodium pyruvate and antibiotics. Cells were plated in the same medium at a density of 1000 cells per well into 96 well tissue culture plates, with outside wells vacant, on the day of assay.
Test compounds supplied in DMSO were diluted into DMSO at 500 times the desired final concentrations before dilution into culture media to 2 times final concentrations. Equal volumes of 2× compounds were added to the cells in 96 well plates and incubated at 37° C. for 3 days.
After 3 days plates were equilibrated to room temperature and equal volume of CellTiter-Glow Reagent (Promega) was added to the culture wells. The plates were agitated briefly and luminescent signal was measured with luminometer. The percent inhibition of the signal seen in cells treated with DMSO alone vs. cells treated with control compound was calculated and used to determine EC50 values (i.e., the concentration of a test compound that is required to obtain 50% of the maximum effect in the cells) for tested compounds, as shown in Example 763.

For a further test, the target named is Pim2 kinase (Homo sapiens, UniProt Q9P1W9). Briefly: Pim2 ATP depletion assay.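 Further: Luciferase-based luminescent readout of ATP remaining after PIM2 phosphorylates a BAD peptide, final 5 nM enzyme, 4 µM ATP, 10 µM peptide, 2.5% DMSO, run to roughly half ATP consumption.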 Type of test: biochemical.
Chain of Pim2 kinase (Q9P1W9 whole entry): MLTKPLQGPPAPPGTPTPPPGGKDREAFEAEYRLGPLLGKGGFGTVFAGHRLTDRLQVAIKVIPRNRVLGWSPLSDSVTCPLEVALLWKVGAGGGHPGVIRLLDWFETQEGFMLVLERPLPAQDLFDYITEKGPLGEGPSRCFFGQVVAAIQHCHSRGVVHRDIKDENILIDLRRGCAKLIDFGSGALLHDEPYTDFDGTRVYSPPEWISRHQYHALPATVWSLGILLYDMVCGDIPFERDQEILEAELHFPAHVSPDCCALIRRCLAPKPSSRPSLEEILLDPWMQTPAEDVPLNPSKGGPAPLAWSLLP
The target in test [1] is T1, human full length PKCE enzyme (Homo sapiens, UniProt Q02156).
T1 construct: human full length PKCE enzyme purchased from InVitrogen; purchased InVitrogen
T1 sequence (Q02156 1-737): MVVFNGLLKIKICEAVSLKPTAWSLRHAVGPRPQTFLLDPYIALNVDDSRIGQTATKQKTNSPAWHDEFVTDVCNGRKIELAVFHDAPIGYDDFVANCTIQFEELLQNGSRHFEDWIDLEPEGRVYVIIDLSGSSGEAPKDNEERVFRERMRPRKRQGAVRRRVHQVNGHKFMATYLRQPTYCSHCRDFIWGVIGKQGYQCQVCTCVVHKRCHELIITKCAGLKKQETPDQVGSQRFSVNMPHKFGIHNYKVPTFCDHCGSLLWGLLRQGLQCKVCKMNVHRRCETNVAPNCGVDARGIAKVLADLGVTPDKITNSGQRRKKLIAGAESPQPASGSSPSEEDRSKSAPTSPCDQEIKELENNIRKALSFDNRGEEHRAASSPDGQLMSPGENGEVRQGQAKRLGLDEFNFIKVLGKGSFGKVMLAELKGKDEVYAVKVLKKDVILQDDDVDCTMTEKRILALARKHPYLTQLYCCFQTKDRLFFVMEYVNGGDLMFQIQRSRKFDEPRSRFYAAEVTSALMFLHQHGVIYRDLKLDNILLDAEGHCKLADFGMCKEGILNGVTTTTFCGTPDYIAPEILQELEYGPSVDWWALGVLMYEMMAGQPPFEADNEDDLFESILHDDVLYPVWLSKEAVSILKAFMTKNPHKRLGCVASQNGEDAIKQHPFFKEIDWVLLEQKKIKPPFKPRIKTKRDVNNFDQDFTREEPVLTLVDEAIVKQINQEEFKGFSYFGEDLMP
Briefly: In vitro PKCE assay. Type of test: biochemical. The note with it: 10 nM enzyme, 40 uM peptide substrate, 20 uM ATP, KinaseGlo Plus readout; read-out: PKCε IC50.

A further test concerns the target KDR kinase (Homo sapiens, UniProt P35968). In words: KDR AlphaScreen assay. To be noted: KDR IC50 (μM).
The test system of another test is HEL 92.1.7 cells. In words: Cell proliferation assay (CellTiter-Glo), HEL 92.1.7. In kind it is cell-based. The note with it: Homo sapiens. In outline:
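Cells in RPMI1640 with 10% FBS were seeded at 1000 cells/well and exposed to compound dilutions from DMSO stocks for 3 days at 37 °C. Viability was read by CellTiter-Glo luminescence. EC50 was derived from percent inhibition relative to DMSO-only and control-compound wells.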

Read-outs that look alike come from different tables or passages of the source.

Chain of KDR kinase (P35968 20-1356): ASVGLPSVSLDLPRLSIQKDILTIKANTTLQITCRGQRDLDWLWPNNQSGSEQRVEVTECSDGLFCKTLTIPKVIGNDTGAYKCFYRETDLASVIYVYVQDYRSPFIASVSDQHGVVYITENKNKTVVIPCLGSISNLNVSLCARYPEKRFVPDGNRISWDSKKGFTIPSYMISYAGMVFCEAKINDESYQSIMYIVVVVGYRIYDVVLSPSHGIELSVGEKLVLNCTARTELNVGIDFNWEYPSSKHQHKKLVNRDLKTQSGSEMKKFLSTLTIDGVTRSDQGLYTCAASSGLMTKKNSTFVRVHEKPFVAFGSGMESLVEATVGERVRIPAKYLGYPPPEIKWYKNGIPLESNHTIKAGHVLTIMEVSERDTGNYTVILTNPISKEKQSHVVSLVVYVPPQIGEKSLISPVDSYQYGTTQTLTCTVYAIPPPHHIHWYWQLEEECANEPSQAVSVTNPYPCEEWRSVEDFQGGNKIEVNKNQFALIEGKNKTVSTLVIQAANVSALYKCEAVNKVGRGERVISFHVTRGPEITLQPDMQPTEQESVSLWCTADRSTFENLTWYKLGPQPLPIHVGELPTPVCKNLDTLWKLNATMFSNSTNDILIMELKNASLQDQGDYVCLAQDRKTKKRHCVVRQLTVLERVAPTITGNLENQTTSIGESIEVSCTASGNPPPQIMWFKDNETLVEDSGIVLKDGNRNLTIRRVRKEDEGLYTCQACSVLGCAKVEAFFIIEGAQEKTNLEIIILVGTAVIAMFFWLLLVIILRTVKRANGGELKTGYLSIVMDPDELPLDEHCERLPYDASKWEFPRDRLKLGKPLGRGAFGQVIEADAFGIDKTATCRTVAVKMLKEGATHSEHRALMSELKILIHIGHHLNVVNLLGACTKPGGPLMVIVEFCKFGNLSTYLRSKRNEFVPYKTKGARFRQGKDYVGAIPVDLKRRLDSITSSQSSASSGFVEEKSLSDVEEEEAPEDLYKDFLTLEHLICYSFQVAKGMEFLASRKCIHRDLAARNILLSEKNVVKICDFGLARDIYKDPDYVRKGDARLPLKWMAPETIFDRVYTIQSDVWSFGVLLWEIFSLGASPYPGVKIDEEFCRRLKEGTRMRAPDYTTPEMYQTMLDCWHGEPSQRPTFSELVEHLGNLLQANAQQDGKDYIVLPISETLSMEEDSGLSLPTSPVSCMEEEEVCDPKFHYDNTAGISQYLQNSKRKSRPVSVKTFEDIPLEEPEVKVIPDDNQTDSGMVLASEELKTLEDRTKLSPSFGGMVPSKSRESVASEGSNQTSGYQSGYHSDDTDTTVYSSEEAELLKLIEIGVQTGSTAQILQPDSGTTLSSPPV
Chain of Pim1 kinase (P11309 whole entry): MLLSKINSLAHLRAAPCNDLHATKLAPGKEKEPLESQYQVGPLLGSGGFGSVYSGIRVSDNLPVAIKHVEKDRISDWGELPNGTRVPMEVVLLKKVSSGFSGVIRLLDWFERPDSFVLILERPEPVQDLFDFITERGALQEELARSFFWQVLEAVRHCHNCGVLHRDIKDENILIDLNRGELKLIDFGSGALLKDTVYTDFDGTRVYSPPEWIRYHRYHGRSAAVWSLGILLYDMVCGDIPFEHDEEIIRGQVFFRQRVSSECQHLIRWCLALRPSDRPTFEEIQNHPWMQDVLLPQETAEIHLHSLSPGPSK

Regarding `Nc1nccnc1C(=O)Nc1cc(-c2ccn[nH]2)ccc1N1CCC(N)CC1` [Example 207, 3-amino-N-[2-(4-aminopiperidin-1-yl)-5-(1H-pyrazol-5-yl)phenyl]pyrazine-2-carbox-amide], the values for the IC50 at Pim1 kinase (read-out: IC50 (μM) PIM1), on Pim3 kinase (read-out: IC50 (μM) PIM3) and on Pim2 kinase (read-out: IC50 (μM) PIM2) were below 1 µM, below 1 µM and 10 to 25 µM, respectively. This molecule also came in with an EC50 with PC3 cells of 5 to 10 µM.

`Nc1nccnc1C(=O)Nc1cc(F)ccc1N1CCC(N)CC1` [Example 208, 3-amino-N-[2-(4-aminopiperidin-1-yl)-5-fluorophenyl]pyrazine-2-carboxamide]: the values for the IC50 on Pim1 kinase (read-out: IC50 (μM) PIM1), on Pim3 kinase (read-out: IC50 (μM) PIM3) and on Pim2 kinase (read-out: IC50 (μM) PIM2) were below 1 µM, below 1 µM and 1 to 10 µM, respectively. For the same molecule, the EC50 with PC3 cells was below 1 µM.

In the case of `Nc1nccnc1C(=O)Nc1c(F)cccc1N1CCC(N)CC1` [Example 209, 3-amino-N-[2-(4-aminopiperidin-1-yl)-6-fluorophenyl]pyrazine-2-carboxamide], the IC50 is 10 to 25 µM at Pim1 kinase (read-out: IC50 (μM) PIM1), above 25 µM at Pim3 kinase (read-out: IC50 (μM) PIM3) and above 25 µM on Pim2 kinase (read-out: IC50 (μM) PIM2). In the test with PC3 cells, this molecule returned an EC50 of 1 to 5 µM.

Turning to `Nc1nccnc1C(=O)Nc1ccc(F)cc1N1CCC(N)CC1` [Example 210, 3-amino-N-[2-(4-aminopiperidin-1-yl)-4-fluorophenyl]pyrazine-2-carboxamide], the IC50 at Pim1 kinase (read-out: IC50 (μM) PIM1) is below 1 µM; on Pim3 kinase (read-out: IC50 (μM) PIM3), below 1 µM; at Pim2 kinase (read-out: IC50 (μM) PIM2), 1 to 10 µM. The EC50 with PC3 cells is below 1 µM.

In the case of `Cc1ccccc1-c1nc(C(=O)Nc2cnccc2N2CCCC(N)C2)c(N)nc1N` (stereo not drawn) [Example 340, 3,5-diamino-6-o-tolyl-pyrazine-2-carboxylic acid (3-amino-3,4,5,6-tetrahydro-2H-[1,4′]bipyridinyl-3′-yl)-amide], the IC50 on Pim1 kinase (read-out: IC50 (μM) PIM1) is below 1 µM; in test [1] it was 1000 to 10000 nM; on Pim3 kinase (read-out: IC50 (μM) PIM3), below 1 µM; against KDR kinase, 10 to 25 µM; on Pim2 kinase (read-out: IC50 (μM) PIM2) it was below 1 µM. Further, the EC50 in the test with HEL 92.1.7 cells (read-out: EC50 (μM) HEL 92.1.7) was in the range of 1 to 5 µM.

As for `Nc1nc(N)c(-c2ccccc2C(F)(F)F)nc1C(=O)Nc1cnccc1N1CCCC(N)C1` (stereo not drawn) [Example 341, 3,5-diamino-6-(2-trifluoro-methyl-phenyl)-pyrazine-2-carboxylic acid (3-amino-3,4,5,6-tetrahydro-2H-[1,4′]bi-pyridinyl-3′-yl)-amide], the IC50 at Pim1 kinase (read-out: IC50 (μM) PIM1) is below 1 µM; in test [1] it was below 1000 nM; at Pim3 kinase (read-out: IC50 (μM) PIM3) it was below 1 µM; against KDR kinase, 1 to 10 µM; at Pim2 kinase (read-out: IC50 (μM) PIM2) it was below 1 µM. In the test with HEL 92.1.7 cells (read-out: EC50 (μM) HEL 92.1.7), the EC50 lay in the range of 1 to 5 µM.

As to `Nc1nc(N)c(-c2ccccc2Cl)nc1C(=O)Nc1cnccc1N1CCCC(N)C1` (stereo not drawn) [Example 342, 3,5-diamino-6-(2-chloro-phenyl)-pyrazine-2-carboxylic acid (3-amino-3,4,5,6-tetra-hydro-2H-[1,4′]bipyridinyl-3′-yl)-amide], the IC50 at Pim1 kinase (read-out: IC50 (μM) PIM1) was below 1 µM; in test [1], 1000 to 10000 nM; at Pim3 kinase (read-out: IC50 (μM) PIM3) it was below 1 µM; at KDR kinase it was 1 to 10 µM; on Pim2 kinase (read-out: IC50 (μM) PIM2), below 1 µM. In addition, in the test with HEL 92.1.7 cells (read-out: EC50 (μM) HEL 92.1.7), the EC50 is below 1 µM.

In the case of `Nc1nc(N)c(-c2ccccc2F)nc1C(=O)Nc1cnccc1N1CCCC(N)C1` (stereo not drawn) [Example 343, 3,5-diamino-6-(2-fluoro-phenyl)-pyrazine-2-carboxylic acid (3-amino-3,4,5,6-tetra-hydro-2H-[1,4′]bipyridinyl-3′-yl)-amide], the IC50 at Pim1 kinase (read-out: IC50 (μM) PIM1) was below 1 µM; in test [1] it was 1000 to 10000 nM; on Pim3 kinase (read-out: IC50 (μM) PIM3), below 1 µM; against KDR kinase it was 1 to 10 µM; on Pim2 kinase (read-out: IC50 (μM) PIM2), below 1 µM. Further, the EC50 in the test with HEL 92.1.7 cells (read-out: EC50 (μM) HEL 92.1.7) was below 1 µM.

For `COc1ccccc1-c1nc(C(=O)Nc2cnccc2N2CCCC(N)C2)c(N)nc1N` (stereo not drawn) [Example 344, 3,5-diamino-6-(2-methoxy-phenyl)-pyrazine-2-carboxylic acid (3-amino-3,4,5,6-tetra-hydro-2H-[1,4′]bipyridinyl-3′-yl)-amide], the IC50 is below 1 µM on Pim1 kinase (read-out: IC50 (μM) PIM1); 10000 to 25000 nM in test [1]; below 1 µM on Pim3 kinase (read-out: IC50 (μM) PIM3); above 25 µM at KDR kinase; below 1 µM at Pim2 kinase (read-out: IC50 (μM) PIM2). For the same molecule, in the test on HEL 92.1.7 cells (read-out: EC50 (μM) HEL 92.1.7), the EC50 was above 10 µM.

In the case of `COc1ccc(F)c(-c2cnc(N)c(C(=O)Nc3ccccc3N3CCC(N)CC3)n2)c1` [Example 393, 3-amino-6-(2-fluoro-5-methoxy-phenyl)-pyrazine-2-carboxylic acid [2-(4-amino-piperidin-1-yl)-phenyl]-amide], the IC50 at Pim1 kinase (read-out: IC50 (μM) PIM1), at Pim3 kinase (read-out: IC50 (μM) PIM3) and on Pim2 kinase (read-out: IC50 (μM) PIM2) was below 1 µM each time. Besides, the EC50 with PC3 cells is 1 to 5 µM.

As to `COc1cc(-c2cnc(N)c(C(=O)Nc3ccccc3N3CCNCC3)n2)cc(OC)c1OC` [Example 395, 3-amino-6-(3,4,5-trimethoxy-phenyl)-pyrazine-2-carboxylic acid (2-piperazin-1-yl-phenyl)-amide], the values for the IC50 on Pim1 kinase (read-out: IC50 (μM) PIM1), on Pim3 kinase (read-out: IC50 (μM) PIM3) and at Pim2 kinase (read-out: IC50 (μM) PIM2) were below 1 µM, 1 to 10 µM and above 25 µM, respectively. The molecule further gave an EC50 in the test on PC3 cells of 1 to 5 µM.

As to `Nc1ncc(-c2ccccc2)nc1C(=O)Nc1ccccc1N1CCC(N)CC1` [Example 397, 3-amino-6-phenyl-pyrazine-2-carboxylic acid [2-(4-amino-piperidin-1-yl)-phenyl]-amide], the IC50 on Pim1 kinase (read-out: IC50 (μM) PIM1) and at Pim3 kinase (read-out: IC50 (μM) PIM3) was below 1 µM each time. The molecule also yielded an EC50 with PC3 cells below 1 µM.

Take `Nc1cc(Cl)c(-c2ccc(N)c(C(=O)Nc3cnccc3N3CCC[C@H](N)C3)n2)cn1` [Example 410, 5,6′-diamino-4′-chloro-[2,3′]bi-pyridinyl-6-carboxylic acid ((S)-3-amino-3,4,5,6-tetrahydro-2H-[1,4′]bipyridinyl-3′-yl)-amide]: the IC50 at Pim1 kinase (read-out: IC50 (μM) PIM1) is below 1 µM; in test [1], 1000 to 10000 nM; on Pim3 kinase (read-out: IC50 (μM) PIM3), below 1 µM; at KDR kinase, above 25 µM; at Pim2 kinase (read-out: IC50 (μM) PIM2) it was below 1 µM. Besides, in the test with HEL 92.1.7 cells (read-out: EC50 (μM) HEL 92.1.7), the EC50 was in the range of 1 to 5 µM.

For the molecule `Nc1ccc(-c2ccc(N)c(C(=O)Nc3cnccc3N3CCC[C@H](N)C3)n2)cn1` [Example 418, 5,6′-diamino-[2,3′]bipyridinyl-6-carboxylic acid ((S)-3-amino-3,4,5,6-tetrahydro-2H-[1,4′]bi-pyridinyl-3′-yl)-amide], the 50% inhibitory concentration (IC50) at Pim1 kinase (read-out: IC50 (μM) PIM1) is below 1 µM; in test [1] it was 10000 to 25000 nM; at Pim3 kinase (read-out: IC50 (μM) PIM3), below 1 µM; against KDR kinase, above 25 µM; on Pim2 kinase (read-out: IC50 (μM) PIM2), below 1 µM. For the same molecule, in the test with HEL 92.1.7 cells (read-out: EC50 (μM) HEL 92.1.7), the EC50 was 1 to 5 µM.

Turning to `Nc1ccc(-c2ccc(F)cc2F)nc1C(=O)Nc1cnccc1N1CCC[C@H](N)C1` [Example 431, 3-amino-6-(2,4-difluoro-phenyl)-pyridine-2-carboxylic acid ((S)-3-amino-3,4,5,6-tetrahydro-2H-[1,4′]bipyridinyl-3′-yl)-amide], the IC50 is below 1 µM at Pim1 kinase (read-out: IC50 (μM) PIM1); 1000 to 10000 nM in test [1]; below 1 µM on Pim3 kinase (read-out: IC50 (μM) PIM3); above 25 µM on KDR kinase; below 1 µM on Pim2 kinase (read-out: IC50 (μM) PIM2). In addition, the EC50 with HEL 92.1.7 cells (read-out: EC50 (μM) HEL 92.1.7) was in the range of 1 to 5 µM.

For `Nc1ncc(-c2ccccc2)nc1C(=O)Nc1[nH]c(=O)ncc1N1CCCCC1` [Example 590, 3-amino-6-phenyl-pyrazine-2-carboxylic acid (2-oxo-5-piperidin-1-yl-2,3-dihydro-pyrimidin-4-yl)-amide], the IC50 at Pim1 kinase (read-out: PIM1 IC50) is below 1 µM; in test [1], 1000 to 10000 nM; on Pim3 kinase (read-out: PIM3 IC50) it was below 1 µM; against KDR kinase, below 1 µM; on Pim2 kinase (read-out: PIM2 IC50), below 1 µM. Besides, in the test with HEL 92.1.7 cells (read-out: HEL 92.1.7 EC50), the EC50 lay in the range of 1 to 5 µM.
